From patent US20150320892A1, “IMAGING FIBROSIS” (GE Healthcare Limited, priority 2012, published 2015)
Structures can show the parent of a compound that is named as a salt.

Key:
[1] = Biodistribution of 99mTc-Compound 2 in naive rats; set-up: species or system Male Sprague-Dawley rats; settings: rat
Protocol: Male Sprague-Dawley rats (231±10 g) were group housed in batches of four, with ad libitum access to food and water. […] At various times post injection (2, 30, 60 and 120 minutes) animals were euthanised (n=3 per timepoint), dissected.
Data above are presented as % injected dose (mean±SD; n=3 animals per timepoint).

[2] = Metabolism study of Compound 2 in naive rats (plasma, HPLC); type: in vivo, male rats
Protocol: The in vivo metabolic profile of Compound 2 was determined after intravenous administration to male rats. Post mortem blood was obtained at 60 minutes post injection and centrifuged to separate plasma.
Analysis was carried out by HPLC with prior extraction of Compound 2 from plasma using solid phase extraction (HLB cartridges; Waters). Briefly, cartridges were conditioned with 5 ml, acetonitrile, followed by 2×5 mL water. Plasma was loaded onto the cartridge and then washed with water (2% acetonitrile). Compound 2 was eluted from the cartridge with 7.5 mL water (0.1% TFA) with acetonitrile (0.1% TFA) as a 50:50 ratio.
The extract was evaporated to dryness and reconstituted in 2 mL starting mobile phase (4% acetonitrile (0.1% TFA) and water (0.1% TFA).
0.5 mL of the reconstituted extract anlaysed by HPLC using the same analytical conditions as mentioned above in Example 3 for Compound 2.

recombinant human FAP = target: T1, recombinant human FAP (Homo sapiens, UniProt Q12884); assay: FAP assay kit (BPS Bioscience), inhibition of enzymatic activity, Gly-Pro-AMC fluorogenic substrate; type: biochemical; settings: for IC50: recombinant human FAP, 30 min, 22° C
T1 construct: purchased BPS Bioscience
T1 sequence (Q12884 1-760): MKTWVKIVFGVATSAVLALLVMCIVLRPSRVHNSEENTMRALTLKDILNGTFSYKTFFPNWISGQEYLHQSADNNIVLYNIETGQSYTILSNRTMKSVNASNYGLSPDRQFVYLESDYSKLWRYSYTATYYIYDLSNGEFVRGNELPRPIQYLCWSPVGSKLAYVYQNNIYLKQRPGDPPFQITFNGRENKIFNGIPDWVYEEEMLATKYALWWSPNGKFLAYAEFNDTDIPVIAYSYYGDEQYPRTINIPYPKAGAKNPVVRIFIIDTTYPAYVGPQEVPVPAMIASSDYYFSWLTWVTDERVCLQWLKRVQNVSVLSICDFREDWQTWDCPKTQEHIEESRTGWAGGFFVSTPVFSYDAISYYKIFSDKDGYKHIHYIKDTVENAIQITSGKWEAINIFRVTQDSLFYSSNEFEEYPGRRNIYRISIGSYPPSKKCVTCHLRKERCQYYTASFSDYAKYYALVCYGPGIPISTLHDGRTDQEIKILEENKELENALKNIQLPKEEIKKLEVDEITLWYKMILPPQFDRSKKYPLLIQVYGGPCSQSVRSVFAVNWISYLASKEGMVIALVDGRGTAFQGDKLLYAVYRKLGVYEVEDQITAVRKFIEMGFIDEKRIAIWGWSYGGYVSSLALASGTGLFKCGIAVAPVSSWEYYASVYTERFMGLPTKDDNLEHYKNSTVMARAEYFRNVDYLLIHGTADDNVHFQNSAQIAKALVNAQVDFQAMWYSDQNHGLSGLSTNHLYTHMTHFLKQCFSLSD
Protocol: (§1) The assay uses the fluorogenic substrate Gly-Pro-Aminomethylcoumarin (AMC) to measure either FAP or DPP-IV activity.
(§2) The enzyme activities were assayed in a total volume of 100 uL for 10 min (DPP-IV) and 30 min (FAP) at 22° C. The inhibitors were dissolved in DMSO. IC50 values were computed using GraphPad Prism 4.

recombinant human DPP-IV = target: T2, recombinant human DPP-IV (Homo sapiens, UniProt P27487); assay: DPP-IV assay kit (BPS Bioscience), inhibition of enzymatic activity, Gly-Pro-AMC fluorogenic substrate; type: biochemical; settings: 10 min, 22° C
T2 construct: purchased BPS Bioscience
Protocol: as §1, §2

T2 sequence (P27487 whole entry): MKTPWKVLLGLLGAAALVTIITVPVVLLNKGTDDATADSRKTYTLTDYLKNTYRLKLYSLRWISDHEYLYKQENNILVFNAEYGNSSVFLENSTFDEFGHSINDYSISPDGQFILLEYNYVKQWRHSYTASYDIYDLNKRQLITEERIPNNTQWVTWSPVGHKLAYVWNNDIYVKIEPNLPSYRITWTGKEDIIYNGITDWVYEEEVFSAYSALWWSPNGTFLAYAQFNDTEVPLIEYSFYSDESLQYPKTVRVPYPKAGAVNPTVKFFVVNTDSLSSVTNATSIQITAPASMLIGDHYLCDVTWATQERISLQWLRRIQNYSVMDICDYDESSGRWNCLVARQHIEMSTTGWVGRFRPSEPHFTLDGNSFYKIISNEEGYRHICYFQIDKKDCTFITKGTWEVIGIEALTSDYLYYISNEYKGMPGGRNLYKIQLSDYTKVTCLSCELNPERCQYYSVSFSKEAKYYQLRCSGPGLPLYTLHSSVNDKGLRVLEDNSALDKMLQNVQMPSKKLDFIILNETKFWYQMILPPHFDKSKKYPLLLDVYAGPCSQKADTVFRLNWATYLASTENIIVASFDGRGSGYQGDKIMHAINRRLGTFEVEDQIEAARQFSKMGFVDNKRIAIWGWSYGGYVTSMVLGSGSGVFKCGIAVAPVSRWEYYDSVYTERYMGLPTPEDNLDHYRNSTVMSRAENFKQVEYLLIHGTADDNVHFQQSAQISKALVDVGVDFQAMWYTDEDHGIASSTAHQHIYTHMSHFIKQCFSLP

Row | Compound | IC50 (recombinant human FAP) [nM] | IC50 (recombinant human DPP-IV) [µM] | further results
1 | NCCNCC(CNCCN)CC(=O)NCCCCCC(=O)NCC(=O)N1CCC[C@H]1B(O)O [Compound 2, (R) (1-(2-(6-(4-((2-aminoethyl)amino)-3-(((2-aminoethyl)amino)methyl)butanamido)hexanamido)acetyl)pyrrolidin-2-yl)boronic acid] |  |  | biodistribution for in vivo imaging purposes (in words) [1]: good biodistribution; Compound 2 still present in the plasma sample ([2]; male rats, intravenous, plasma 60 minutes after injection): Approximately 80%; in vivo metabolic profile (in words) ([2]; rat, in vivo): good in vivo metabolic profile
2 | N#Cc1ccc(NCCNCC(=O)N2CCCC2C#N)nc1 (centres unmarked) [DPP-IV reference, NVP DPP 728 hydrochloride, reference compound] | > 100000 |  | 
3 | O=C(NCC(=O)N1CCC[C@H]1B(O)O)c1cccc2ccccc12 [FAP reference, (R)-(1-(2-(1-naphthamido)acetyl)pyrrolidin-2-yl)boronic acid, reference compound] |  | > 50 | 
4 | (R)-(1-(2-(6-(4-((2-aminoethyl)amino)-3-(((2-aminoethyl)amino)methyl)butanamido)hexanamido)acetyl)pyrrolidin-2-yl)boronic acid, dioxorhenium(V)salt [Compound 1] | 9 | > 50 | affinity for FAP (in words) (recombinant human FAP; in vitro assay): high and selective affinity for FAP
